Consider two compounds from paper PMC11341359, “Assessing the immunogenicity risk of salmon calcitonin peptide impurities using in silico and in vitro methods” (Frontiers in Pharmacology, 2024).

Peptide text beside a SMILES is read from it.

For one data set, the target named is T1, HLA DRB1*0101 (Homo sapiens, UniProt P01903+P01911, A100R/D57E/F55L/F60I/F76Y/I96L/L162R/M171V/P40L/Q125E/R42F/V115G/Y59C).
T1 construct: incubated overnight to equilibrium with a soluble HLA DR molecule; purchased Benaroya Research Institute, Seattle, Washington
Description: Class II HLA competition binding assay. The conditions noted are these: short assay peptides (Cys7 replaced with Ser); competition with biotinylated allele-specific peptide, soluble HLA DR, overnight, time-resolved fluorescence, triplicate, seven concentrations; unit inferred. As for the experimental part: (§1) The class II HLA binding assays performed for these studies measure the binding affinity of a target peptide to HLA DRB1*0101, *0301, *0401, *0701, *0901, *1101, *1301, and *1501 in a standardized competition assay. This assay was originally described by [Steere et al. (2006)] and adapted by EpiVax. Previous publications have described the assay in detail ([McMurry et al., 2007]; [Ardito et al., 2011]). Briefly, unlabeled test peptides are incubated overnight to equilibrium with a soluble HLA DR molecule (Benaroya Research Institute, Seattle, Washington) and a biotinylated, allele-specific competitor peptide. The binding reaction is then neutralized, and peptide–HLA complexes are transferred to a 96-well plate coated with the pan-HLA DR antibody, clone L243 (BioLegend), and incubated overnight. The following day, Europium-labeled streptavidin (PerkinElmer, Waltham, MA) is added to identify the peptide–HLA complexes. An indirect measure of binding is determined by time-resolved fluorescence. Each peptide–HLA binding reaction is evaluated in triplicate over a range of seven concentrations. The percent inhibition values at seven distinct concentrations are used to calculate the IC50 value, defined as the concentration at which the test peptide inhibits 50% of the labeled competitor peptide.
(§2) Peptides that bind to the HLA at an IC50 value of 100 nM or less are considered very high-affinity binders. Peptides that bind at IC50 values ranging from 100 nM to 1,000 nM are considered high-affinity binders. Peptides that bind at IC50 values ranging from 1,000 nM to 10,000 nM are considered moderate-affinity binders. Peptides that bind at IC50 values ranging from 10,000 nM to 100,000 nM are considered low-affinity binders, and those with IC50 values ranging from 100,000 nM to 1,000,000 nM are considered negligible-affinity binders. […] We note that these concentrations are specific for the in vitro HLA-binding assay and are used to compare the relative binding affinities of the impurity sequences to the API and independent from the peptide concentrations described for the in vitro T-cell assays described below.

The target of a further data set is T2, HLA DRB1*0301 (Homo sapiens, UniProt P01903+P01911, A100K/A102G/A103R/A169T/F55Y/I96L/K41T/L162R/M171V/P40S/Q125H/Q178H/Q39Y/R42S/S66N/T106N/T262R/W38E/Y61H).
T2 construct: incubated overnight to equilibrium with a soluble HLA DR molecule; purchased Benaroya Research Institute, Seattle, Washington
Kind of data set: Class II HLA competition binding assay. The conditions noted are these: short assay peptides (Cys7 replaced with Ser), competition with biotinylated allele-specific peptide, soluble HLA DR, overnight, time-resolved fluorescence, triplicate, seven concentrations. As for the experimental part:
as §1, §2

Another data set deals with T3, HLA DRB1*0401 (Homo sapiens, UniProt P01903+P01911, A100K/A169T/F76Y/I96L/K127E/L162R/M171V/N62H/P40V/Q125Y/R42H/S133A/S149N/S66Y/V115G/V209L/W38E).
T3 construct: incubated overnight to equilibrium with a soluble HLA DR molecule; purchased Benaroya Research Institute, Seattle, Washington
Kind of data set: Class II HLA competition binding assay. The following applies: short assay peptides (Cys7 replaced with Ser); competition with biotinylated allele-specific peptide, soluble HLA DR, overnight, time-resolved fluorescence, triplicate, seven concentrations. As to the method: as §1, §2

The next data set concerns the target HLA DRB1*0701 (Homo sapiens, UniProt P01903+P01911, A100R/A102G/A103Q/D57E/D86V/E43K/F76Y/K127E/L162R/M171V/P40G/Q125H/Q99D/R33Q/R42Y/R54Q/S133A/S66F/T210M/V115G/Y107V/Y59L/Y89S). Kind of data set: Class II HLA competition binding assay. The following applies: short assay peptides (Cys7 replaced with Ser); competition with biotinylated allele-specific peptide, soluble HLA DR, overnight, time-resolved fluorescence, triplicate, seven concentrations. As to the method: as §1, §2

A further data set concerns the target HLA DRB1*0901 (Homo sapiens, UniProt P01903+P01911, A100R/A103E/D57H/D86V/F55Y/F60I/F76Y/I96F/K127E/L162R/M171V/P40D/Q125H/Q99R/R33Q/R42F/S133A/S66N/T210M/V115G/W38K/Y107V/Y59G/Y89S). Description: Class II HLA competition binding assay. The conditions noted are these: short assay peptides (Cys7 replaced with Ser); competition with biotinylated allele-specific peptide, soluble HLA DR, overnight, time-resolved fluorescence, triplicate, seven concentrations. As to the method: as §1, §2

Another data set concerns the target T4, HLA DRB1*1101 (Homo sapiens, UniProt P01903+P01911, A100R/A169T/A87E/I96F/K41T/L162R/M171V/P40S/Q125H/Q178H/Q39Y/Q99D/R42S/S66Y/T262R/V115G/W38E).
T4 construct: incubated overnight to equilibrium with a soluble HLA DR molecule; purchased Benaroya Research Institute, Seattle, Washington
Description: Class II HLA competition binding assay. The following applies: short assay peptides (Cys7 replaced with Ser), competition with biotinylated allele-specific peptide, soluble HLA DR, overnight, time-resolved fluorescence, triplicate, seven concentrations. As to the method: as §1, §2

The next data set addresses T5, HLA DRB1*1301 (Homo sapiens, UniProt P01903+P01911, A100E/A169T/K41T/L162R/M171V/P40S/Q125H/Q178H/Q39Y/Q99D/R42S/S66N/T262R/W38E/Y61H).
T5 construct: incubated overnight to equilibrium with a soluble HLA DR molecule; purchased Benaroya Research Institute, Seattle, Washington
Kind of data set: Class II HLA competition binding assay. The following applies: short assay peptides (Cys7 replaced with Ser), competition with biotinylated allele-specific peptide, soluble HLA DR, overnight, time-resolved fluorescence, triplicate, seven concentrations. As for the experimental part: as §1, §2

The next data set has as its target T6, HLA DRB1*1501 (Homo sapiens, UniProt P01903+P01911).
T6 construct: incubated overnight to equilibrium with a soluble HLA DR molecule; purchased Benaroya Research Institute, Seattle, Washington
Description: Class II HLA competition binding assay. The conditions noted are these: short assay peptides (Cys7 replaced with Ser); competition with biotinylated allele-specific peptide, soluble HLA DR, overnight, time-resolved fluorescence, triplicate, seven concentrations; unit inferred. As to the method:
as §1, §2

In another data set the test system is human donor PBMCs. Kind of data set: In vitro immunogenicity protocol (IVIP) naïve T-cell assay, IFNγ FluoroSpot. Format: cell-based. The following applies: individual full-length peptides at 20 μg/mL, 14 days, then 48 h IFNγ FluoroSpot; 16 donors; positive: SFC > 50 per 10^6, SI ≥ 2, p < 0.05 vs medium. As to the method: To improve the sensitivity of the T-cell assays, fresh (not frozen) blood samples were obtained from human blood donors for the T-cell assays (internal observations). Specifically, PBMCs were isolated from leukocyte reduction filters obtained from the Rhode Island Blood Center (RIBC) in Providence, RI. To confirm the sufficient breadth of HLA coverage in the donor cohort, high-resolution (4-digit) class II HLA haplotyping of donors was performed at the Transplant Immunology Laboratory at Hartford Hospital in Hartford, CT, using the sequence-specific oligonucleotide method (SSP-PCR). […] supertype alleles were expressed by the donor PBMCs used in the assays reported here (HLA DRB1*0301, *0401, *0701, *1101, *1301, and *1501). The HLA identified for the cohort of subjects used in this study is representative of 81.81% of the HLA alleles expressed by the global population. Forty percent of the donors were female and 60% of the donors were male, and their ages ranged from 17 to 83 years. Donor cohort demographic information and HLA types for each donor are provided in Supplementary Figure S1. To measure the naïve T-cell response to salmon calcitonin and impurity peptides, cells were plated at a density of 2.5 × 10^5 cells per well in 96-well U-bottom cell plates in RPMI 1640 cell culture medium supplemented with IL-2 (10 ng/mL) and IL-7 (20 ng/mL) (Gibco). The cells were incubated with […]®, or a synthetic salmon calcitonin peptide, or individual peptide impurities, at a concentration of 20 μg/mL for 14 days at 37°C/5% CO2, with medium exchanges that include cytokine support (IL-2 and IL-7) on days 4, 7, and 11. A concentration of 20 μg/mL (5.8 μM) was the dose selected for the SCT API and the four selected impurities, following a dose-ranging study performed with […]® to determine the maximum dose at which a T-cell response could be observed with no observed toxicity to the cells. The dose-ranging study was performed following the same protocol as described above. The following control antigens were used in the T-cell assays for each of the PBMC samples: positive controls, keyhole limpet hemocyanin (KLH; Thermo Fisher), and the antigenic peptide pool CEFT (ImmunoSpot). In addition, human serum albumin (HSA; Sigma-Aldrich) was used as a negative control antigen, and phytohemagglutinin (PHA; Thermo Fisher), a T-cell mitogen, was used to confirm T-cell functionality. […] Responses were considered positive if (1) the number of spots was at least twice the background (stimulation index [SI] ≥ 2); (2) there were greater than 50 spot-forming cells (SFCs) per 1.0 × 10^6 PBMCs; and (3) responses were statistically different from the media (Student's t-test). Each of the test articles (SCT API, RLD, or impurity peptide) and each of the positive and negative controls were evaluated in nine replicate wells containing donor PBMCs. Following the 14-day incubation, cells in the nine replicate wells were collected, pooled by the treatment condition, and re-plated in triplicate on a precoated anti-human IFNγ FluoroSpot plate (Mabtech) at a concentration of 1.0 × 10^5 cells per well in the presence of an appropriate test article or control reagent in supplemented RPMI 1640 culture medium. The FluoroSpot plates were incubated for 48 h at 37°C/5% CO2. After 48 h, FluoroSpot plates were developed according to the manufacturer's directions. Spots were counted on an iSpot Spectrum FluoroSpot reading system (AID, Strassberg, Germany) using software 7.0, build 14790. Fluorophore-specific spot parameters were defined using the spot size, spot intensity, and spot gradient. A spot separation algorithm was applied for optimal spot detection. Analysis and counting of spots were performed by unbiased experts at ZellNet Consulting, Inc. (Fort Lee, NJ).

The conditions of data set [1]: of those who develop ADAs; ref LEVY et al., 1988; Grauer et al., 1995; cited from earlier work. The text has this:
In this case study, we describe an exercise to assess the immunogenicity risk of generic peptide impurities that were identified in salmon calcitonin (SCT). SCT is a peptide drug currently under development for the generic market by several manufacturers. Salmon calcitonin is a 32-amino acid peptide drug approved in the United States for the treatment of postmenopausal osteoporosis, Paget’s disease, and hypercalcemia. Salmon calcitonin shares only 50% amino acid sequence homology with human calcitonin (Figure 1), and despite its therapeutic benefits, in clinical trials, 40%–70% of patients tre ...

For data set [2] the following is noted: greater than human calcitonin; ref Epand et al., 1983; Lee et al., 2011; Andreassen et al., 2014; cited from earlier work. An excerpt:
Despite the risk of immunogenicity, SCT is preferred for therapeutic use over human calcitonin due to its 50-fold greater potency in vivo. Increased potency is attributed to the ability of the peptide to adopt an α-helical structure and bind to the human calcitonin receptor with a greater, and nearly irreversible, affinity relative to the human homolog ([Epand et al., 1983]; [Lee et al., 2011]; [Andreassen et al., 2014]).

One may read the IC50 as the point on the concentration scale where inhibition reaches its midpoint. A lower IC50 goes with higher potency. For `CC(=O)NCCCC[C@H](NC(=O)CNC(=O)[C@H](CC(C)C)NC(=O)[C@@H](NC(=O)[C@H](CO)NC(=O)[C@@H](NC(=O)[C@@H](N)CO)[C@@H](C)O)C(C)C)C(=O)N[C@@H](CC(C)C)C(=O)N[C@@H](CO)C(=O)N[C@@H](CCC(N)=O)C(=O)N[C@@H](CCC(=O)O)C(=O)N[C@@H](CC(C)C)C(=O)N[C@@H](Cc1c[nH]cn1)C(=O)N[C@@H](CCCCN)C(=O)N[C@@H](CC(C)C)C(=O)O` [LYS-AC11_SCT(5-19)] (H-STSVLGK(Ac)LSQELHKL-OH), the IC50 on HLA DRB1*0101 is 0.0123 mM; at HLA DRB1*0301 (unit inferred) it was more than 1 mM; on HLA DRB1*0401 it was more than 1 mM; on HLA DRB1*0701 it was more than 1 mM; at HLA DRB1*0901 it was more than 1 mM; on HLA DRB1*1101 (unit inferred) it was more than 1 mM. Further, the IC50 on HLA DRB1*1301 (unit inferred) is more than 1 mM; on HLA DRB1*1501, 0.0128 mM. Moreover, the “IC50, HLA DRB1*0301” value at HLA DRB1*0301 (unit not given) is “non-binder”. The “IC50, HLA DRB1*0401” value at HLA DRB1*0401 is on record as “non-binder”. Moreover, the “IC50, HLA DRB1*0701” value on HLA DRB1*0701 was “non-binder”. The “IC50, HLA DRB1*0901” value at HLA DRB1*0901 is on record as “non-binder”. Besides, the “IC50, HLA DRB1*1101” value on HLA DRB1*1101 (unit not given) is recorded as “loss of binding”. Moreover, the “IC50, HLA DRB1*1301” value on HLA DRB1*1301 (unit not given) was “non-binder”.

On to “CSNLSTCVLGKLSQELHKLQTYPRTNTGSGTP (disulfide) [SCT API, salmon calcitonin, 32-amino acid peptide drug, disulfide Cys1-Cys7, C-terminus amidated]”, for which, in the data set with human donor PBMCs, the “Percentage of Responding Donors” value was 44% and the “Responding Donors” value is reported as 7. Moreover, the “patients with ADAs who develop neutralizing anti-SCT antibodies (NADAs)” value in data set [1] is “more than 60%”. Also, the “potency in vivo relative to human calcitonin” value in data set [2] was 50 fold.
